Results: patent publication US9599627B2, “NMR methods for monitoring blood clot formation” (T2 Biosystems, Inc., priority 2011, dated 2017)

What was measured:
[1] = system: P2Y12 pathway in platelets; experiment: T2MR platelet inhibition, ADP activation formulation in citrated whole blood; format: cell-based, human; conditions: ex vivo spiked MeSAMP, healthy donors
Text: We have developed a standard formulation for ADP activation of platelets in citrated whole blood which uses the addition of heparin to control thrombin activation, thereby minimizing variability in platelet activation via thrombin. Clotting in such a system is initiated with a combination of calcium (to overcome citrate), and reptilase/factor XIIIa (to replace thrombin). The complete one-pot activation mixture which activates platelets via ADP, and is therefore useful in probing the state of the P2Y12 ADP receptor, contains heparin, reptilase, factor XIIIa, calcium, and ADP.
In this experiment inhibition of the P2Y12 pathway in platelets by using the ex vivo spiked MeSAMP (2-thiomethyl AMP, an irreversible ADP P2Y12 receptor inhibitor) as a mimic for Plavix inhibition of platelet activity was tested.
A standard ADP activation formulation including heparin, reptilase, factor XIIIa, calcium, and ADP was used to activate platelet in citrated whole blood obtained from healthy donors. Samples were tested in the presence and absence of the platelet activation inhibitor MeSAMP. Again we observed that the clot signature was dependent on platelet activity.

[2] = system: anti-Xa; experiment: PT clotting time of spiked samples (T2MR and Stago); format: cell-based, human; conditions: spiked at 10 ng/mL-1000 ng/mL
Protocol: Clotting times were measured by […] by first establishing a time zero T2 value (i.e., by taking the first point or some sort of average or linear fit to the first 5-10 data points) of the T2 time curve, and second identifying the time point (i.e., the clotting time or PT time) in the T2 time curve when the T2 value had changed by a predetermined amount (e.g. 5% or 10%) indicative of clotting in the sample. From the observed PT clotting time the INR was calculated using the methods described in Jan et al., Clin. Chem. 35:840 (1989). […] 18 normal samples and 24 abnormal samples were tested against a reference range established by 20 normal samples. Abnormal samples with prolonged PT times were obtained by spiking increasing levels of the anti-Xa inhibitor Rivaroxiban (10 ng/mL-1000 ng/mL). Correlation with TEG clotting time was obtained across >40 normal patient samples with non-optimized R2 correlation of >0.8. (see FIG. 14B). PT time correlations with Stago for plasma (see FIG. 14D) and with Hemochron for whole blood (see FIG. 14C) were also found.

[3] = system: platelet activity; experiment: T2MR platelet inhibition, heparin blood activated by AA+RF; format: cell-based; conditions: 600 μM aspirin ex vivo, AA+RF activation
Protocol: In this experiment platelet inhibition was monitored by the addition of 600 μM aspirin ex vivo to heparin blood prior to activation by AA+RF (samples were tested with and without aspirin). […] These studies confirmed that the clot signature was dependent on platelet activity.

For `CSc1nc(N)c2ncn([C@@H]3O[C@H](COP(=O)(O)O)[C@@H](O)[C@H]3O)c2n1` [MeSAMP, 2-thiomethyl AMP], the “clot-associated T2 signal” value [1] was “dramatically diminished or absent”.

In the case of `O=C(NC[C@H]1CN(c2ccc(N3CCOCC3=O)cc2)C(=O)O1)c1ccc(Cl)s1` [Rivaroxiban], the PT times [2] is reported as “prolonged”.

With `CC(=O)Oc1ccccc1C(=O)O` [aspirin] the “clot-associated T2 signal” value [3] was “dramatically diminished or absent”.
